The target in the experiment is hMC2 receptor (Homo sapiens, UniProt Q01718). Kind of experiment: hMC2 membrane binding assay ([125I]ACTH (1-39) Tyr23, SPA). More on the design: scale not given here. Conditions: crude hMC2R membranes from CRE-bla-CHO-K1 cells expressing hMC2 receptor and hMRAP; [125I]ACTH (1-39) Tyr23 0.2 nM; 1.5 hours at room temperature; read-out: MC2R binding potency. An outline of the steps:
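CRE-bla-CHO-K1 membranes co-expressing hMC2 receptor and hMRAP, preincubated with WGA PVT SPA beads in pH 7.4 HEPES/MgCl2/CaCl2/0.2% BSA buffer. Compounds (typically 0–10,000 nM final) compete with 0.2 nM [125I]ACTH(1-39) Tyr23 for 1.5 h at room temperature. SPA counts give Ki by non-linear regression.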

Chain of hMC2 receptor (Q01718 whole entry): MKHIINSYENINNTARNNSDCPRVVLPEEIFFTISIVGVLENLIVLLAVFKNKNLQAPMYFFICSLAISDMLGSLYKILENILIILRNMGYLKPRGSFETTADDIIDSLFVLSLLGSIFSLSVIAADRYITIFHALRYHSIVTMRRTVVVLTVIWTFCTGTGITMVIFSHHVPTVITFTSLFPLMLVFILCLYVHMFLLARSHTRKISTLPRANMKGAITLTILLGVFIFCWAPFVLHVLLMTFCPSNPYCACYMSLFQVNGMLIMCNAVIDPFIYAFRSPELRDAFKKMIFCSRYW
Chain of hMC2 receptor (Q8TCY5 whole entry partner): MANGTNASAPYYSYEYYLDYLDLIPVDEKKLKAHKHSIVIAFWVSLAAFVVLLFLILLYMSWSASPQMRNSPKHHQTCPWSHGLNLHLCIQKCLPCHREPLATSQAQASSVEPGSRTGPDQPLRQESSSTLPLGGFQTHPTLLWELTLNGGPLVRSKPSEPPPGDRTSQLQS

With `CCOc1ncccc1-c1ccc(N2CCN(C(=O)c3ccc(Cl)cc3C(F)(F)F)C[C@H]2CC)c(C(=O)NC[C@@H]2CCN2C)c1F` [Compound 1-229, 6-[(2R)-4-[4-chloro-2-(trifluoromethyl)benzoyl]-2-ethylpiperazin-1-yl]-3-(2-ethoxypyridin-3-yl)-2-fluoro-N-{[(2S)-1-methylazetidin-2-yl]methyl}benzamide], the Ki is below 10 nM.

Consider `CCOc1ncccc1-c1ccc(N2CCN(C(=O)C34CCC(C(F)(F)F)(CC3)CC4)C[C@H]2CC)c(C(=O)N[C@@H]2CCN(C)C2)n1` [Compound 1-282, 2′-ethoxy-5-[(2R)-2-ethyl-4-[4-(trifluoromethyl)bicyclo[2.2.2]octane-1-carbonyl]piperazin-1-yl]-N-[(3R)-1-methylpyrrolidin-3-yl]-[2,3′-bipyridine]-6-carboxamide], for which the Ki is below 10 nM. As to `CCOc1ccc(C(=O)N2CCN(c3ccc(-c4ccccc4OCC)nc3C(=O)NC3CN(C)C3)[C@H](CC)C2)c(C(F)(F)F)n1` [Compound 1-237, 3-[(2R)-4-[6-ethoxy-2-(trifluoromethyl)pyridine-3-carbonyl]-2-ethylpiperazin-1-yl]-6-(2-ethoxyphenyl)-N-(1-methylazetidin-3-yl)pyridine-2-carboxamide], the Ki is below 10 nM.

As to `CCOc1ncccc1-c1ccc(N2CCN(C(=O)c3ccc(Cl)cc3Cl)C[C@H]2CC)c(C(=O)NCCN)c1` [Compound 1-42, N-(2-aminoethyl)-2-[(2R)-4-(2,4-dichlorobenzoyl)-2-ethylpiperazin-1-yl]-5-(2-ethoxypyridin-3-yl)benzamide], the Ki was below 10 nM.

Regarding `CCOc1ncccc1-c1ccc(N2CCN(C(=O)C3(C(F)(F)F)CCCC3)C[C@H]2CC)c(C(=O)NC[C@H]2CCN2)n1` [Compound 1-327, N-{[(2R)-azetidin-2-yl]methyl}-2′-ethoxy-5-[(2R)-2-ethyl-4-[1-(trifluoromethyl)cyclopentanecarbonyl]piperazin-1-yl]-[2,3′-bipyridine]-6-carboxamide], the Ki was below 10 nM. Under `CCOc1ncccc1-c1ccc(N2CCN(C(=O)C3(C(F)(F)F)CCCC3)C[C@H]2CC)c(C(=O)N[C@H]2CCNC2)n1` [Compound 1-321, 2′-ethoxy-5-[(2R)-2-ethyl-4-[1-(trifluoromethyl)cyclopentanecarbonyl]piperazin-1-yl]-N-[(3S)-pyrrolidin-3-yl]-[2,3′-bipyridine]-6-carboxamide] stands below 10 nM; under `CCOc1ncccc1-c1ccc(N2CCN(C(=O)c3ccc(C(F)(F)F)cc3N(C)C)C[C@H]2CC)c(C(=O)NCCN)c1` [Compound 1-107, N-(2-aminoethyl)-2-[(2R)-4-[2-(dimethylamino)-4-(trifluoromethyl)benzoyl]-2-ethylpiperazin-1-yl]-5-(2-ethoxypyridin-3-yl)benzamide], below 10 nM. Regarding `CCOc1ncccc1-c1ccc(N2CCN(C(=O)C3(C(F)(F)F)CCCC3)C[C@H]2CC)c(C(=O)NC[C@@H]2CCCN2)n1` [Compound 1-325, 2′-ethoxy-5-[(2R)-2-ethyl-4-[1-(trifluoromethyl)cyclopentanecarbonyl]piperazin-1-yl]-N-{[(2S)-pyrrolidin-2-yl]methyl}-[2,3′-bipyridine]-6-carboxamide], the Ki was below 10 nM. Under `CCOc1ncccc1-c1ccc(N2CCN(C(=O)c3ccc(Cl)cc3Cl)C[C@H]2CC)c(C(=O)NCC2=NCCN2)c1F` [Compound 1-178, 6-[(2R)-4-(2,4-dichlorobenzoyl)-2-ethylpiperazin-1-yl]-N-[(4,5-dihydro-1H-imidazol-2-yl)methyl]-3-(2-ethoxypyridin-3-yl)-2-fluorobenzamide] stands below 10 nM; under `CCOc1ncccc1-c1ccc(N2CCN(C(=O)c3ccc(Cl)cc3N3CCC(N)CC3)C[C@H]2CC)c(C(=O)NCCN)c1` [Compound 1-52, N-(2-aminoethyl)-2-[(2R)-4-[2-(4-aminopiperidin-1-yl)-4-chlorobenzoyl]-2-ethylpiperazin-1-yl]-5-(2-ethoxypyridin-3-yl)benzamide], below 10 nM; under `CCOc1ncccc1-c1ccc(N2CCN(C(=O)c3ccc(Cl)cc3C(F)(F)F)C[C@H]2CC)c(C(=O)N[C@H]2CCNC2)c1` [Compound 1-92, 2-[(2R)-4-[4-chloro-2-(trifluoromethyl)benzoyl]-2-ethylpiperazin-1-yl]-5-(2-ethoxypyridin-3-yl)-N-[(3S)-pyrrolidin-3-yl]benzamide], below 10 nM. Take `CCOc1ncccc1-c1ccc(N2CCN(C(=O)O[C@@H](c3ccccc3)C(F)(F)F)C[C@H]2CC)c(C(=O)N[C@@H]2CCNC2)n1` [Compound 1-377, (1S)-2,2,2-trifluoro-1-phenylethyl (3R)-4-(2′-ethoxy-6-{[(3R)-pyrrolidin-3-yl]carbamoyl}-[2,3′-bipyridin]-5-yl)-3-ethylpiperazine-1-carboxylate]: the Ki is below 10 nM. Under `CCOc1ccccc1-c1ccc(N2CCN(C(=O)N3CCc4cc(F)cc(C#N)c43)C[C@H]2CC)c(C(=O)NC2CN(C)C2)n1` [Compound 1-424, 3-[(2R)-4-(7-cyano-5-fluoro-2,3-dihydro-1H-indole-1-carbonyl)-2-ethylpiperazin-1-yl]-6-(2-ethoxyphenyl)-N-(1-methylazetidin-3-yl)pyridine-2-carboxamide] stands below 10 nM; under `CCOc1ncccc1-c1ccc(N2CCN(C(=O)c3ccc(Cl)cc3C(F)(F)F)C[C@H]2CC)c(C(=O)NC2CNC2)n1` [Compound 1-211, N-(azetidin-3-yl)-5-[(2R)-4-[4-chloro-2-(trifluoromethyl)benzoyl]-2-ethylpiperazin-1-yl]-2′-ethoxy-[2,3′-bipyridine]-6-carboxamide], below 10 nM; under `CCOc1ncccc1-c1ccc(N2CCN(C(=O)C3(C(F)(F)F)CCCC3)C[C@H]2CC)c(C(=O)N[C@@H]2CCNC2)n1` [Compound 1-263, 2′-ethoxy-5-[(2R)-2-ethyl-4-[1-(trifluoromethyl)cyclopentanecarbonyl]piperazin-1-yl]-N-[(3R)-pyrrolidin-3-yl]-[2,3′-bipyridine]-6-carboxamide], below 10 nM. For `CCOc1ncccc1-c1ccc(N2CCN(C(=O)c3ccc(OC)nc3C(F)(F)F)C[C@H]2CC)c(C(=O)N[C@@H]2CCNC2)c1F` [Compound 1-271, 3-(2-ethoxypyridin-3-yl)-6-[(2R)-2-ethyl-4-[6-methoxy-2-(trifluoromethyl)pyridine-3-carbonyl]piperazin-1-yl]-2-fluoro-N-[(3R)-pyrrolidin-3-yl]benzamide], the Ki was below 10 nM. Under `CCOc1ncccc1-c1ccc(N2CCN(C(=O)c3ccc(F)cc3C(F)F)C[C@H]2CC)c(C(=O)N[C@@H]2CCNC2)c1F` [Compound 1-189, 6-[(2R)-4-[2-(difluoromethyl)-4-fluorobenzoyl]-2-ethylpiperazin-1-yl]-3-(2-ethoxypyridin-3-yl)-2-fluoro-N-[(3R)-pyrrolidin-3-yl]benzamide] stands below 10 nM; under `CCOc1ncccc1-c1ccc(N2CCN(C(=O)C3(C(F)(F)F)CCCC3)C[C@H]2CC)c(C(=O)NC23CCN(CC2)C3)n1` [Compound 1-405, N-{1-azabicyclo[2.2.1]heptan-4-yl}-2′-ethoxy-5-[(2R)-2-ethyl-4-[1-(trifluoromethyl)cyclopentanecarbonyl]piperazin-1-yl]-[2,3′-bipyridine]-6-carboxamide], below 10 nM. Turning to `CCOc1ncccc1-c1ccc(N2CCN(C(=O)c3ccc(F)cc3-c3ccc(CN)cc3)C[C@H]2CC)c(C(=O)NCCN)c1` [Compound 1-36, N-(2-aminoethyl)-2-[(2R)-4-[4′-(aminomethyl)-5-fluoro-[1,1′-biphenyl]-2-carbonyl]-2-ethylpiperazin-1-yl]-5-(2-ethoxypyridin-3-yl)benzamide], the Ki was below 10 nM. Under `CCOc1ncccc1-c1ccc(N2CCN(C(=O)c3ccc(OC)nc3C(F)(F)F)C[C@H]2CC)c(C(=O)NCCNC)n1` [Compound 1-187, 2′-ethoxy-5-[(2R)-2-ethyl-4-[6-methoxy-2-(trifluoromethyl)pyridine-3-carbonyl]piperazin-1-yl]-N-[2-(methylamino)ethyl]-[2,3′-bipyridine]-6-carboxamide] stands below 10 nM.

With `CCOc1ncccc1-c1ccc(N2CCN(C(=O)c3ccc(C(F)(F)F)s3)C[C@H]2CC)c(C(=O)N[C@@H]2CCNC2)n1` [Compound 1-368, 2′-ethoxy-5-[(2R)-2-ethyl-4-[5-(trifluoromethyl)thiophene-2-carbonyl]piperazin-1-yl]-N-[(3R)-pyrrolidin-3-yl]-[2,3′-bipyridine]-6-carboxamide], the Ki is below 10 nM. Under `CCOc1ccc(C(=O)N2CCN(c3ccc(-c4cccnc4OCC)nc3C(=O)NCCN(C)C)[C@H](CC)C2)c(C(F)(F)F)n1` [Compound 1-207, N-[2-(dimethylamino)ethyl]-2′-ethoxy-5-[(2R)-4-[6-ethoxy-2-(trifluoromethyl)pyridine-3-carbonyl]-2-ethylpiperazin-1-yl]-[2,3′-bipyridine]-6-carboxamide] stands below 10 nM; under `CCOc1ccccc1-c1ccc(N2CCN(C(=O)N3CCC[C@H]3C(F)(F)F)C[C@H]2CC)c(C(=O)N[C@@H]2CCN(C)C2)n1` [Compound 1-374, 6-(2-ethoxyphenyl)-3-[(2R)-2-ethyl-4-[(2S)-2-(trifluoromethyl)pyrrolidine-1-carbonyl]piperazin-1-yl]-N-[(3R)-1-methylpyrrolidin-3-yl]pyridine-2-carboxamide], below 10 nM. For the compound `CCOc1ncccc1-c1ccc(N2CCN(C(=O)c3ccc(OC)cc3C(F)(F)F)C[C@H]2CC)c(C(=O)NC2CNC2)c1F` [Compound 1-202, N-(azetidin-3-yl)-3-(2-ethoxypyridin-3-yl)-6-[(2R)-2-ethyl-4-[4-methoxy-2-(trifluoromethyl)benzoyl]piperazin-1-yl]-2-fluorobenzamide], the Ki is below 10 nM.

Values taken from patent publication US10981894B2, “Melanocortin subtype-2 receptor (MC2R) antagonists and uses thereof” (Crinetics Pharmaceuticals, Inc., priority 2018, dated 2021).
